In ChEMBL document CHEMBL5512655, “Discovery of indolylacryloyl-derived oxacins as novel potential broad-spectrum antibacterial candidates” (Eur J Med Chem, 2024) one finds MIC data, which are given here for 9 molecules.

What all share (assay type): functional
Test [1] deals with Escherichia coli. Kind of test: Antibacterial activity against Escherichia coli ATCC 25922 assessed as inhibition of bacterial growth measured after 24 hrs incubation.
Test [2] concerns Staphylococcus aureus. The test is described as follows: Antibacterial activity against Staphylococcus aureus ATCC 25923 assessed as inhibition of bacterial growth measured after 24 hrs incubation.
In test [3] the test system is Klebsiella pneumoniae. Kind of test: Antibacterial activity against Klebsiella pneumonia assessed as inhibition of bacterial growth measured after 24 hrs incubation.
Test [4] has as its system Staphylococcus aureus. Kind of test: Antibacterial activity against Staphylococcus aureus assessed as inhibition of bacterial growth measured after 24 hrs incubation.
Test [5] concerns Staphylococcus aureus. The test is described as follows: Antibacterial activity against methicillin-resistant Staphylococcus aureus N315 assessed as inhibition of bacterial growth measured after 24 hrs incubation.
Test [6] deals with Pseudomonas aeruginosa. Kind of test: Antibacterial activity against Pseudomonas aeruginosa ATCC 27853 assessed as inhibition of bacterial growth measured after 24 hrs incubation.
Test [7] deals with Enterococcus faecalis. Kind of test: Antibacterial activity against Enterococcus faecalis assessed as inhibition of bacterial growth measured after 24 hrs incubation.
Test [8] relates to Acinetobacter baumannii. The test is described as follows: Antibacterial activity against Acinetobacter baumannii assessed as inhibition of bacterial growth measured after 24 hrs incubation.
For test [9], the system named is Staphylococcus aureus. Kind of test: Antibacterial activity against Staphylococcus aureus ATCC 29213 assessed as inhibition of bacterial growth measured after 24 hrs incubation.
Test [10] has as its system Escherichia coli. The test is described as follows: Antibacterial activity against Escherichia coli assessed as inhibition of bacterial growth measured after 24 hrs incubation.
Test [11] relates to Pseudomonas aeruginosa. The test is described as follows: Antibacterial activity against Pseudomonas aeruginosa assessed as inhibition of bacterial growth measured after 24 hrs incubation.

Converted amounts (≈) assume the structure as drawn.

As for `CCn1cc(C(=O)O)c(=O)c2cc(F)c(N3CCNCC3)cc21` [NORFLOXACIN], the MIC in [1] worked out at 0.5 µg/mL (≈ 1.57 µM); in test [2], 2 µg/mL (≈ 6.26 µM); in [3], 0.5 µg/mL (≈ 1.57 µM); in [4], 0.5 µg/mL (≈ 1.57 µM); in test [5] it was 0.5 µg/mL (≈ 1.57 µM); in [6], 1 µg/mL (≈ 3.13 µM). The MIC in [7] turned out to be 0.5 µg/mL (≈ 1.57 µM); in test [8], 1 µg/mL (≈ 3.13 µM); in test [9] it was 1 µg/mL (≈ 3.13 µM); in test [10], 2 µg/mL (≈ 6.26 µM); in [11], 4 µg/mL (≈ 12.5 µM).
In the case of `CCn1cc(C(=O)O)c(=O)c2cc(F)c(N3CCN(C(=O)/C(C#N)=C/c4c[nH]c5cc(C)ccc45)CC3)cc21`, the minimal inhibitory concentration (MIC) came out at 0.5 µg/mL (≈ 0.948 µM) in test [1]; 0.25 µg/mL (≈ 0.474 µM) in [2]; 0.25 µg/mL (≈ 0.474 µM) in test [3]; 0.25 µg/mL (≈ 0.474 µM) in test [4]; 0.25 µg/mL (≈ 0.474 µM) in [5]; 2 µg/mL (≈ 3.79 µM) in [6]. In addition, the MIC in test [7] came to 2 µg/mL (≈ 3.79 µM); in test [8] it was 0.25 µg/mL (≈ 0.474 µM); in test [9], 1 µg/mL (≈ 1.9 µM); in test [10], 1 µg/mL (≈ 1.9 µM); in test [11] it was 0.25 µg/mL (≈ 0.474 µM).
As to `CCn1cc(C(=O)O)c(=O)c2cc(F)c(N3CCN(C(=O)/C(C#N)=C/c4cn(CC5CCC5)c5ccccc45)CC3)cc21`, the MIC in test [1] stood at 0.5 µg/mL (≈ 0.86 µM); in [2], 0.25 µg/mL (≈ 0.43 µM); in test [3], 0.25 µg/mL (≈ 0.43 µM); in test [4] it was 0.25 µg/mL (≈ 0.43 µM); in test [5], 0.25 µg/mL (≈ 0.43 µM); in test [6], 4 µg/mL (≈ 6.88 µM). Also, the MIC was 0.5 µg/mL (≈ 0.86 µM) in test [7]; 0.25 µg/mL (≈ 0.43 µM) in test [8]; 0.25 µg/mL (≈ 0.43 µM) in [9]; 0.5 µg/mL (≈ 0.86 µM) in [10]; 0.25 µg/mL (≈ 0.43 µM) in [11].
For the molecule `CCn1cc(C(=O)O)c(=O)c2cc(F)c(N3CCN(C(=O)/C(C#N)=C/c4cn(CC=C(C)C)c5ccccc45)CC3)cc21`, the MIC was determined as 0.5 µg/mL (≈ 0.86 µM) in test [1]; 4 µg/mL (≈ 6.88 µM) in test [2]; 0.25 µg/mL (≈ 0.43 µM) in test [3]; 1 µg/mL (≈ 1.72 µM) in test [4]; 8 µg/mL (≈ 13.8 µM) in test [5]; 1 µg/mL (≈ 1.72 µM) in test [6]. For the same molecule, the MIC in test [7] was found to be 1 µg/mL (≈ 1.72 µM); in test [8], 2 µg/mL (≈ 3.44 µM); in [9], 4 µg/mL (≈ 6.88 µM); in test [10], 64 µg/mL (≈ 110 µM); in test [11], 8 µg/mL (≈ 13.8 µM).
On to `CCn1cc(C(=O)O)c(=O)c2cc(F)c(N3CCN(C(=O)/C(C#N)=C/c4cn(Cc5ccc(C)cc5)c5ccccc45)CC3)cc21`, for which the MIC in [1] was 8 µg/mL (≈ 13 µM); in [2], 2 µg/mL (≈ 3.24 µM); in test [3], 0.5 µg/mL (≈ 0.809 µM); in [4], 32 µg/mL (≈ 51.8 µM); in test [5], 1 µg/mL (≈ 1.62 µM); in test [6], 0.25 µg/mL (≈ 0.405 µM). Besides, the MIC in test [7] stood at 8 µg/mL (≈ 13 µM); in test [8], 8 µg/mL (≈ 13 µM); in [9] it was 4 µg/mL (≈ 6.48 µM); in test [10], 16 µg/mL (≈ 25.9 µM); in [11], 32 µg/mL (≈ 51.8 µM).
`CCn1cc(C(=O)O)c(=O)c2cc(F)c(N3CCN(C(=O)/C(C#N)=C/c4c[nH]c5ccc(Cl)cc45)CC3)cc21`: the MIC in [1] is 0.25 µg/mL (≈ 0.456 µM); in [2], 16 µg/mL (≈ 29.2 µM); in test [3], 1 µg/mL (≈ 1.82 µM); in test [4] it was 1 µg/mL (≈ 1.82 µM); in test [5], 1 µg/mL (≈ 1.82 µM); in test [6] it was 0.25 µg/mL (≈ 0.456 µM). The minimal inhibitory concentration (MIC) was found to be 1 µg/mL (≈ 1.82 µM) in test [7]; 1 µg/mL (≈ 1.82 µM) in test [8]; 2 µg/mL (≈ 3.65 µM) in test [9]; 0.25 µg/mL (≈ 0.456 µM) in test [10]; 2 µg/mL (≈ 3.65 µM) in [11].
For the molecule `CCn1cc(C(=O)O)c(=O)c2cc(F)c(N3CCN(C(=O)/C(C#N)=C/c4cn(Cc5ccc(Cl)c(Cl)c5)c5ccccc45)CC3)cc21`, the MIC in test [1] is 32 µg/mL (≈ 47.6 µM); in test [2] it was 64 µg/mL (≈ 95.2 µM); in test [3], 1 µg/mL (≈ 1.49 µM); in test [4], 16 µg/mL (≈ 23.8 µM); in test [5], 4 µg/mL (≈ 5.95 µM); in test [6], 1 µg/mL (≈ 1.49 µM). Besides, the MIC came out at 32 µg/mL (≈ 47.6 µM) in test [7]; 64 µg/mL (≈ 95.2 µM) in test [8]; 64 µg/mL (≈ 95.2 µM) in test [9]; 8 µg/mL (≈ 11.9 µM) in [10]; 2 µg/mL (≈ 2.97 µM) in test [11].
As for `CCn1cc(C(=O)O)c(=O)c2cc(F)c(N3CCN(C(=O)/C(C#N)=C/c4cn(Cc5ccccc5)c5ccccc45)CC3)cc21`, the MIC in test [1] was found to be 2 µg/mL (≈ 3.31 µM); in [2] it was 4 µg/mL (≈ 6.63 µM); in test [3] it was 0.5 µg/mL (≈ 0.828 µM); in [4] it was 4 µg/mL (≈ 6.63 µM); in test [5], 4 µg/mL (≈ 6.63 µM); in test [6], 1 µg/mL (≈ 1.66 µM). The minimal inhibitory concentration (MIC) in test [7] came out at 4 µg/mL (≈ 6.63 µM); in [8], 2 µg/mL (≈ 3.31 µM); in test [9], 4 µg/mL (≈ 6.63 µM); in test [10] it was 1 µg/mL (≈ 1.66 µM); in test [11], 256 µg/mL (≈ 424 µM).
With `CCn1cc(C(=O)O)c(=O)c2cc(F)c(N3CCN(C(=O)/C(C#N)=C/c4cn(Cc5cccc(Cl)c5)c5ccccc45)CC3)cc21`, the MIC was found to be 8 µg/mL (≈ 12.5 µM) in test [1]; 2 µg/mL (≈ 3.13 µM) in [2]; 0.5 µg/mL (≈ 0.784 µM) in test [3]; 32 µg/mL (≈ 50.1 µM) in [4]; 1 µg/mL (≈ 1.57 µM) in test [5]; 0.25 µg/mL (≈ 0.392 µM) in test [6]. Further, the MIC in test [7] was 8 µg/mL (≈ 12.5 µM); in test [8], 8 µg/mL (≈ 12.5 µM); in test [9], 4 µg/mL (≈ 6.27 µM); in test [10], 16 µg/mL (≈ 25.1 µM); in [11], 32 µg/mL (≈ 50.1 µM).
